Measured values published in patent US6335360B1, “Tripeptidyl peptidase inhibitors” (Institut National de la Sante et de la Recherche Medicale …, priority 1997, dated 2002).
Counter-ions that a name gives are not always drawn. Like-named read-outs stand apart in the source and are kept apart here.

Key:
[1] = molecular target: T1, membrane TPP II (tripeptidyl peptidase II) (Rattus norvegicus, UniProt Q64560); assay: Inhibition of AAF-Amc hydrolysis by cerebral membranes (inhibition of TPP II); format: biochemical; settings: for Ki: rat cerebral cortex membranes; for activity (stated in words): stereoisomers not separated (2(R/S) mixture)
T1 construct: evaluated by measuring the activity of membrane TPP II; from tissue; host or cells: rat cerebral cortex membranes
T1 sequence (Q64560 whole entry): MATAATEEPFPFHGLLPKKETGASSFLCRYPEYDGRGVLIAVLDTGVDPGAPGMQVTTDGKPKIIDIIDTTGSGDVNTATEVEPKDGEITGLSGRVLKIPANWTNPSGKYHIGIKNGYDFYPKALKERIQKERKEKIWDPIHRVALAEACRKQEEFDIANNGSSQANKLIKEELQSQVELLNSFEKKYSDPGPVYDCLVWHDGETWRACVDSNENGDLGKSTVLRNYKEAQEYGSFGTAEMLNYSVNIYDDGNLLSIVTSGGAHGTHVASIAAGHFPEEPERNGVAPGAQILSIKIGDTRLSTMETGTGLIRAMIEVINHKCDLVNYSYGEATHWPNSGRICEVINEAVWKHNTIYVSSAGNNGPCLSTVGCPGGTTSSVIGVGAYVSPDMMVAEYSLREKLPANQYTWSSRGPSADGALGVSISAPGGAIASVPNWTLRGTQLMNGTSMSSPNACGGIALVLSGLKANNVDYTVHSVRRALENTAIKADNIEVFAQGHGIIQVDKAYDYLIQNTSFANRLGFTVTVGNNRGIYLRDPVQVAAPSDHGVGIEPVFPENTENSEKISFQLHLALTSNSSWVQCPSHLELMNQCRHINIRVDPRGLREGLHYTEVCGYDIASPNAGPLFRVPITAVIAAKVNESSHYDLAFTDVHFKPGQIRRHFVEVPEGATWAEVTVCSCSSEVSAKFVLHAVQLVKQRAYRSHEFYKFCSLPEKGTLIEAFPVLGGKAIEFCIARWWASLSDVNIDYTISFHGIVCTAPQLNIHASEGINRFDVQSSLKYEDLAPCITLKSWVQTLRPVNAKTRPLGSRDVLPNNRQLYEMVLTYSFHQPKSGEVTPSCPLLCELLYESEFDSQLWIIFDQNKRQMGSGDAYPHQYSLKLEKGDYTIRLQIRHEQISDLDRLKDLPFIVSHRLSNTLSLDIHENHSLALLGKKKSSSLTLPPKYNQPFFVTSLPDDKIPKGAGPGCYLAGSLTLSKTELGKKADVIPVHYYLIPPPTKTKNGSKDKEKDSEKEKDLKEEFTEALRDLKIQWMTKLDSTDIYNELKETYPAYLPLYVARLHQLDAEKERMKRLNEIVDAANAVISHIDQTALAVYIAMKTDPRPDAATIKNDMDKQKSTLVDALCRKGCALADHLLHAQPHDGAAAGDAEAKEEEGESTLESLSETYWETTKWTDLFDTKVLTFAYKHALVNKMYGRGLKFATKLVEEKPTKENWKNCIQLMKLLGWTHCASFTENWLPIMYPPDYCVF
Procedure: The potency of the compounds of the invention was evaluated by measuring the activity of membrane TPP II.
Membranes of rat cerebral cortex were obtained by centrifugation (200,000×g min) of a homogenate in 10 volumes of a 50 mM potassium phosphate buffer, pH 7.4.
The centrifugation pellet was carefully washed and taken up in a buffer containing 10% glycerol and 0.1% Brij 35 to obtain a concentration of 25 mg protein/ml.
After 25 minutes of preincubation, incubation is carried out in 0.1 ml of a buffer containing 0.1% Brij 35, […], 25 μg of membrane protein and 50 μm of substrate Ala-Ala-Phe-Amc (AAF-Amc). Liberation of 7-amino4-methylcoumarin (Amc) is evaluated by fluorimetry.

[2] = Table 1, substrate Ala-Ala-Phe-Amc, Ki calculated from 50% inhibition concentration and Km 23 μM, read-out: Ki (nM), Inhibition of AAF-Amc Hydrolysis by Cerebral Membranes
[3] = Table 2, comparative compounds known in the art, substrate AAF-Amc, read-out: Ki (nM), Inhibition of AAF-Amc Hydrolysis by Cerebral Membranes, comparative compound

| SMILES | Ki [1, 2] [nM] | melting point [°C] | other results |
| --- | --- | --- | --- |
| CC[C@H](N)C(=O)N1c2ccc(Cl)cc2C[C@H]1C(=O)NCCCl.O=C(O)C(F)(F)F [Example 2, 1-(2(S)-Aminobutyryl)-5-chloroindoline-2(S)-carboxylic acid 2-chloroethylamide trifluoroacetate] | 1.7 | 80 to 88 | – |
| CC[C@H](N)C(=O)N1c2cccc(C)c2CC1C(=O)NCC(F)(F)F.O=C(O)C(F)(F)F (mixture of isomers) | – | 109 to 122 | – |
| CC[C@H](N)C(=O)N1c2ccccc2C[C@H]1C(=O)NCC1CC1.O=C(O)C(F)(F)F [Example 4, 1-(2(S)-aminobutyryl)-indoline-2(S)-carboxylic acid N-(cyclopropylmethyl)amide trifluoroacetate] | – | 57 to 74 | – |
| CCCCNC(=O)C1Cc2cc(O)ccc2N1C(=O)[C@@H](N)CC (mixture of isomers) [C.C.4, 1-(2(S)-aminobutyryl)-5-hydroxyindoline-2(R/S)-carboxylic acid n-butylamide, reference compound] | – | – | Ki [1, 3]: 6.6 nM |
| CC[C@H](N)C(=O)N1c2ccc(OC)c(OC)c2CC1C(=O)NCC(F)(F)F.O=C(O)C(F)(F)F (mixture of isomers) | – | 79 to 87 | – |
| CC[C@H](N)C(=O)N1c2ccc3c(c2CC1C(=O)NCC(F)(F)F)OCO3.O=C(O)C(F)(F)F (mixture of isomers) | – | 89 to 98 | – |
| CCCCNC(=O)[C@H]1Nc2ccc3ccccc3c2C1C(=O)[C@@H](N)CC.O=C(O)C(F)(F)F (stereo partly shown) | – | 76 to 88 | – |
| CC[C@H](N)C(=O)C1c2c(ccc3ccccc23)N[C@@H]1C(=O)NCC(F)(F)F.O=C(O)C(F)(F)F (stereo partly shown) | – | 64 to 78 | – |
| CC[C@H](N)C(=O)N1c2cccc(Cl)c2CC1C(=O)NCC(F)(F)F.O=C(O)C(F)(F)F (mixture of isomers) [Example 7, 1-(2(S)-aminobutyryl)-4-chloroindoline-2(R/S)-carboxylic acid (2,2,2-trifluoroethyl)amide trifluoroacetate] [listing 1 of 2 here] | 0.56 | – | activity (stated in words) [1]: useful activity |
| CC[C@H](N)C(=O)N1c2cccc(F)c2CC1C(=O)NCC(F)(F)F.O=C(O)C(F)(F)F (mixture of isomers) [Example 8, 1-(2(S)-aminobutyryl)-4-fluoroindoline-2(R/S)-carboxylic acid (2,2,2-trifluoroethyl)amide trifluoroacetate] [listing 1 of 2 here] | 0.36 | – | activity (stated in words) [1]: useful activity |
| CC[C@H](N)C(=O)N1c2ccc(Cl)cc2C[C@H]1C(=O)NCC(F)(F)F.O=C(O)C(F)(F)F [Example 1, 1-(2(S)-aminobutyryl)-5-chloroindoline-2(S)-carboxylic acid (2,2,2-trifluoroethyl)amide trifluoroacetate] | 0.4 | 34 to 35 | – |
| CC[C@H](N)C(=O)N1c2cccc(Cl)c2CC1C(=O)NCC(F)(F)F.O=C(O)C(F)(F)F (mixture of isomers) [Example 7, 1-(2(S)-aminobutyryl)-4-chloroindoline-2(R/S)-carboxylic acid (2,2,2-trifluoroethyl)amide trifluoroacetate] [listing 2 of 2 here] | – | 104 to 106 | – |
| CC[C@H](N)C(=O)N1c2ccccc2C[C@H]1C(=O)NCCSC.O=C(O)C(F)(F)F [Example 3, 1-(2(S)-aminobutyryl)-indoline-2(S) carboxylic acid (2-methylthioethyl)amide trifluoroacetate] | – | 59.5 to 60.5 | – |
| CC[C@H](N)C(=O)N1c2ccc(OC(F)(F)F)cc2CC1C(=O)NCC(F)(F)F (mixture of isomers) [Example 10, 1-(2(S)-aminobutyryl)-5-trifluoromethoxyindoline-2(R/S)-carboxylic acid (2,2,2-trifluoroethyl)amide trifluoroacetate] | 1.1 | – | – |
| CCCCNC(=O)C1Cc2cc(OC)ccc2N1C(=O)[C@@H](N)CC (mixture of isomers) [C.C.5, 1-(2(S)-aminobutyryl)-5-methoxyindoline-2(R/S)-carboxylic acid n-butylamide, reference compound] | – | – | Ki [1, 3]: 8 nM |
| CC[C@H](N)C(=O)N1c2ccc(OC)cc2CC1C(=O)NCC(F)(F)F (mixture of isomers) [Example 9, 1-(2(S)-aminobutyryl)-5-methoxyindoline-2(R/S)-carboxylic acid (2,2,2-trifluoroethyl)amide trifluoroacetate] | 0.7 | – | – |
| CCCCNC(=O)C1Cc2c(ccc(Cl)c2Cl)N1C(=O)[C@@H](N)CC.O=C(O)C(F)(F)F (mixture of isomers) | – | 115 to 124 | – |
| CC[C@H](N)C(=O)N1c2ccc(OC)cc2CC1C(=O)NCC(F)(F)F.O=C(O)C(F)(F)F (mixture of isomers) [Example 9, 1-(2(S)-aminobutyryl)-5-methoxyindoline-2(R/S)-carboxylic acid (2,2,2-trifluoroethyl)amide trifluoroacetate] | – | 63.5 to 66 | – |
| CC[C@H](N)C(=O)N1c2ccc(Cl)c(Cl)c2CC1C(=O)NCC(F)(F)F.O=C(O)C(F)(F)F (mixture of isomers) | – | 68 to 78 | – |
| CC[C@H](N)C(=O)N1c2cccc(F)c2CC1C(=O)NCC(F)(F)F.O=C(O)C(F)(F)F (mixture of isomers) [Example 8, 1-(2(S)-aminobutyryl)-4-fluoroindoline-2(R/S)-carboxylic acid (2,2,2-trifluoroethyl)amide trifluoroacetate] [listing 2 of 2 here] | – | 57.5 to 58.5 | – |
| CCCCNC(=O)[C@@H]1Cc2cc(Cl)ccc2N1C(=O)[C@@H](N)CC [C.C.1, 1-(2(S)-aminobutyryl)-5-chloroindoline-2(S)-carboxylic acid n-butylamide, reference compound] | – | – | Ki [1, 3]: 2.5 nM |
| CC[C@H](N)C(=O)N1c2cccc(OC)c2C[C@H]1C(=O)NCC(F)(F)F.O=C(O)C(F)(F)F | – | 125 to 149 | – |
| CC[C@H](N)C(=O)N1c2ccc(O)cc2CC1C(=O)NCC(F)(F)F (mixture of isomers) [Example 6, 1-(2(S)-aminobutyryl)-5-hydroxyindoline-2(R/S)-carboxylic acid (2,2,2,-trifluoroethyl)amide trifluoroacetate] | 2.8 | – | Ki ([1]; Table 2, compounds of the invention, substrate AAF-Amc, read-out: Ki (nM), Inhibition of AAF-Amc Hydrolysis by Cerebral Membranes, compound of the invention): 2.8 nM |
